Test results from publication PMC3495945, “Org 214007-0: A Novel Non-Steroidal Selective Glucocorticoid Receptor Modulator with Full Anti-Inflammatory Properties and Improved Therapeutic Index” (PLoS ONE, 2012).
Like-named read-outs stand apart in the source and are kept apart here.

Tests used:
[1] = test system: human neonatal foreskin fibroblasts; experiment: BioMAP assay HDF3CGF; format: cell-based; details: 1 μM, prednisolone = 100%
Procedure: (§1) Next, effects of Org 214007-0 on the cytokine release by primary human whole blood cells treated with either LPS or anti-CD28/PMA were tested. […] These assays make use of different types of primary human cells, in this case coronary artery smooth muscle cells and neonatal foreskin fibroblasts, in an inflammatory environment, [28]. […] When all repressed and induced proteins are taken into account, a relative TI value for Org 214007-0 could be deduced of 1.7 in coronary artery smooth muscle cells and of 2.2 in neonatal foreskin fiboblasts.

THP-1 cells = experiment: THP-1 repression of TNFα/IFNγ-induced MCP-1, IL-6, IL-8 release; format: cell-based, human; details: for IC50: Homo sapiens, THP-1, TNFα (60 ng/ml)/IFNγ (40 ng/ml); for Max. eff., IL-6 repression / Max. eff., IL-8 repression / Max. eff., MCP-1 repression: THP-1, I/T, prednisolone = 100%
Procedure: After 6 hours total RNA was isolated and further processed for microarray hybridization as described for the HepG2 cells. The data from all microarray experiments have been deposited in the NCBI Gene Expression Omnibus (GEO) under accession number (identifier will be included in proof). […] Expression of FKBP51, MCP-1, IL-6 and IL-8 protein was measured by specific […]; #A[…] [MCP-1], #A[…] [IL-6] and #A[…] [IL-8]) according to the manufacturer manual. […] Expression of FKBP51, DUSP1 and GILZ was measured by Q-PCR according to the same procedure as described for the HepG2 cells. In this case the following primer-pairs were used: for GAPDH: [NT] and [NT]; for FKBP51: [NT] and [NT]; for DUSP1: [NT] and [NT]; for GILZ: [NT] and [NT]. For the evaluation of protein expression, cells were incubated overnight with a whole dose range of compounds. Supernatants were collected to determine cytokine levels and cell lysates were generated by repeated freeze-thaw cycles to measure expression of FKBP51 protein. Expression of FKBP51, MCP-1, IL-6 and IL-8 was measured by specific […]; #A[…] [MCP-1], #A[…] [IL-6] and #A[…] [IL-8]) according to the manufacturer manual. […] Samples were incubated for 60 min at 23 C. […] Plates were measured using an EnVision-Alpha Reader.

[2] = test system: primary human whole blood cells; experiment: Human whole blood LPS-induced cytokine release; format: cell-based; details: for IC50: Whole blood cell, LPS, 24 hours, read-out: IC50, LPS-induced TNFα release; for Max. eff., LPS-induced TNFα repression: prednisolone = 100%
Description: Hereafter, supernatant was carefully collected and tested at the most optimal dilution (predetermined by a titration study on control samples) in a human TNFα-specific ELISA (for the LPS stimulated samples) or in a human IL-5-specific or human G-CSF-specific ELISA (for the PMA/anti-CD28 stimulated samples) (Duoset, R&D systems USA).

GR = target: T1, GR (Homo sapiens, UniProt P04150); experiment: ChIP-Seq analysis of GR binding to DNA in THP-1 cells; format: cell-based; parameters: endogenous in cells; host or cells: THP-1; details: for number of ChIP-Seq clusters compared to vehicle: THP-1, 1 μM, 1 hour
T1 sequence (P04150 1-777): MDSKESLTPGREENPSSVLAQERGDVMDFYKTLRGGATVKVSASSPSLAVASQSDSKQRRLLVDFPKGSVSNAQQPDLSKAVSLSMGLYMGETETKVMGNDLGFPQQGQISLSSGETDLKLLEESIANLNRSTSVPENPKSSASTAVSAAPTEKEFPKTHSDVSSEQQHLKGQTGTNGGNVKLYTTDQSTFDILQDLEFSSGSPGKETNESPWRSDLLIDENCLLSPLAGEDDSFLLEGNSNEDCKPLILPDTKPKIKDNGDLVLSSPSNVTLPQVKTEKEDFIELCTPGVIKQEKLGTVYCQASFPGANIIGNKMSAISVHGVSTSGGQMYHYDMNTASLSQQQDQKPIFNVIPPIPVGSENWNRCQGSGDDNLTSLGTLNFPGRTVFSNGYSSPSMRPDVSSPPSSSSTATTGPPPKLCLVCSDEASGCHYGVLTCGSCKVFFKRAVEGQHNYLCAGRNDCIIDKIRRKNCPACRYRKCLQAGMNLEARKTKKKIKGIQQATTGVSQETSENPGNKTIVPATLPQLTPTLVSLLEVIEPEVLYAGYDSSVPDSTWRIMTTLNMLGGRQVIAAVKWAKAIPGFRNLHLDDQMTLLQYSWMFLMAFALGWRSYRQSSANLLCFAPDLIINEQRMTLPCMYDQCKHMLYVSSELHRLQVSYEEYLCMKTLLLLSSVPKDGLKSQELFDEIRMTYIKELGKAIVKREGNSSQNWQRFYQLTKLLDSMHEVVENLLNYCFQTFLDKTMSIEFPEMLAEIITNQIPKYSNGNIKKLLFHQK
Procedure: From the THP-1 samples that were used for gene expression analysis after 6 hours, samples were drawn after 1 hour and used for ChIP–Seq analysis at Genpathway (Carlsbad, CA). For precipitation of genomic DNA regions antibody against GR (Santa Cruz sc-8992) was used. Details are provided in SI text. The obtained amplified DNA libraries were sent to Illumina Sequencing Services (San Diego, CA) for sequencing on a Genome Analyzer II. Sequence files were analyzed with the Genomatix Genome Analyzer Workbench from Genomatix (Genomatix Software GmbH, Munich). Sequences were clustered using default parameter settings and aligned against the human genome version GRCh37/hg19. Clusters were merged using the Replicate Analysis module from the Workbench package (more detailed information in SI text).
Cells were fixed with 1% formaldehyde for 15 min and quenched with 0.125 M glycine. Chromatin was isolated by adding lysis buffer, followed by disruption with a Dounce homogenizer (cells) or motor pestle (tissue). Lysates were sonicated and the DNA sheared to an average length of 300-500 bp. Genomic DNA (Input) was prepared by treating aliquots of chromatin with RNase, proteinase K and heat for de-crosslinking, followed by ethanol precipitation. Pellets were resuspended and the resulting DNA was quantified on a NanoDrop spectrophotometer. Extrapolation to the original chromatin volume allowed quantitation of the total chromatin yield.
An aliquot of chromatin (28.5 ug) was precleared with protein A agarose beads (Invitrogen). Genomic DNA regions of interest were isolated using 4 ug antibody against GR (Santa Cruz sc-8992). Complexes were washed, eluted from the beads with SDS buffer, and subjected to RNase and proteinase K treatment. Crosslinks were reversed by incubation overnight at 65 C, and ChIP DNA was purified by phenol-chloroform extraction and ethanol precipitation.

[3] = test system: coronary artery smooth muscle cells; experiment: BioMAP assay CASM3C; format: cell-based, human; details: 1 μM, prednisolone = 100%
Procedure: as §1

## C[C@]12C=CC(=O)C=C1CC[C@@H]1[C@@H]2[C@@H](O)C[C@@]2(C)[C@H]1CC[C@]2(O)C(=O)CO [prednisolone, reference compound]
[1]
  Max. eff., activation of PAI-1: 100%
THP-1 cells; read-out: IC50, IL-6 release
  IC50: 34.1 nM
THP-1 cells; read-out: IC50, IL-8 release
  IC50: 36.9 nM
THP-1 cells; read-out: IC50, MCP-1 release
  IC50: 69.9 nM
THP-1 cells
  Max. eff., IL-6 repression: 100%
  Max. eff., IL-8 repression: 100%
  Max. eff., MCP-1 repression: 100%
[2]
  IC50: 27 nM
  Max. eff., LPS-induced TNFα repression: 100%
GR; inflammatory condition
  number of ChIP-Seq clusters compared to vehicle: 3471
GR; non-stimulated condition
  number of ChIP-Seq clusters compared to vehicle: 9413
[3]
  Max. eff., induction of serum amyloid A (SAA): 100%

## Cc1nnsc1C(=O)N[C@H]1CCN2c3ccc(C#N)cc3[C@@H](C)c3ccccc3[C@@H]2C1 [Org 214007-0]
[1]
  Max. eff., activation of PAI-1: 55%
THP-1 cells; read-out: IC50, IL-6 release
  IC50: 9.3 nM
THP-1 cells; read-out: IC50, IL-8 release
  IC50: 11 nM
THP-1 cells; read-out: IC50, MCP-1 release
  IC50: 23.5 nM
THP-1 cells
  Max. eff., IL-6 repression: 78 (±9) %
  Max. eff., IL-8 repression: 74 (±10) %
  Max. eff., MCP-1 repression: 44 (±8) %
[2]
  IC50: 50 nM
  Max. eff., LPS-induced TNFα repression: 68 (±8.7) %
GR; inflammatory condition
  number of ChIP-Seq clusters compared to vehicle: 2502
GR; non-stimulated condition
  number of ChIP-Seq clusters compared to vehicle: 2080
GR; non-stimulated, 2080 vs 9413 sites
  binding sites also contained within the prednisolone set: 99.5%
[3]
  Max. eff., induction of serum amyloid A (SAA): 58%
